Experimental data: article PMC5424325, “Effect of health foods on cytochrome P450-mediated drug metabolism” (Journal of Pharmaceutical Health Care and Sciences, 2017)

Legend:
CYP2D6 [1] = target: T1, CYP2D6 (Homo sapiens, UniProt P10635); test: Kinetic analysis of dextromethorphan O-demethylation in Ad-P450 cells; format: in vitro ADME
T1 construct: expressed in transfected cells; host or cells: HepG2 cells infected with Ad-CYP2D6 (0.05 MOI) together with the four other P450 adenoviruses
Procedure: (§1) The cells were seeded in a 48-well tissue culture plate (Becton Dickinson) at 5.0 × 10^4 cells/well. After 48 h, the cells were simultaneously infected with Ad-CYP1A2 at 5 multiplicity of infection (MOI), Ad-CYP2C9 at 1 MOI, Ad-CYP2C19 at 2 MOI, Ad-CYP2D6 at 0.05 MOI, and Ad-CYP3A4 at 10 MOI. […] After shaking, the mixtures were centrifuged at 2500 × g for 10 min and the supernatants were evaporated to dryness at 60 °C in a block incubator. The residues were dissolved in acetonitrile containing 0.1% acetic acid and the solutions were subjected to liquid chromatography/tandem mass spectrometry (LC-MS/MS) analysis.
(§2) The Prominence system (Shimadzu Corporation, Kyoto, Japan) equipped with LCMS-8040 system (Shimadzu Corporation) was used for LC-MS/MS analysis with an electrospray ionization interface. The ionization mode used was positive in the multiple reaction monitoring. The chromatographic separation was performed on Xterra MS C18 columns (2.1 mm × 100 mm, 5 μm) (Waters, Milford, MA, USA). The column oven temperature was maintained at 40 °C. The mobile phase consisted of acetonitrile containing 0.1% acetic acid and water containing 0.1% acetic acid (85:15) with a flow rate of 200 μL/min. […]
(§3) The Km, Vmax, and IC50 values were determined using Prism software (version 6.0; GraphPad Software Inc., San Diego, CA, USA).

CYP1A2 [2] = target: T2, CYP1A2 (Homo sapiens, UniProt P05177); conditions: Phenacetin O-deethylation, Ad-P450 cells, 5 h
T2 sequence (P05177 1-516): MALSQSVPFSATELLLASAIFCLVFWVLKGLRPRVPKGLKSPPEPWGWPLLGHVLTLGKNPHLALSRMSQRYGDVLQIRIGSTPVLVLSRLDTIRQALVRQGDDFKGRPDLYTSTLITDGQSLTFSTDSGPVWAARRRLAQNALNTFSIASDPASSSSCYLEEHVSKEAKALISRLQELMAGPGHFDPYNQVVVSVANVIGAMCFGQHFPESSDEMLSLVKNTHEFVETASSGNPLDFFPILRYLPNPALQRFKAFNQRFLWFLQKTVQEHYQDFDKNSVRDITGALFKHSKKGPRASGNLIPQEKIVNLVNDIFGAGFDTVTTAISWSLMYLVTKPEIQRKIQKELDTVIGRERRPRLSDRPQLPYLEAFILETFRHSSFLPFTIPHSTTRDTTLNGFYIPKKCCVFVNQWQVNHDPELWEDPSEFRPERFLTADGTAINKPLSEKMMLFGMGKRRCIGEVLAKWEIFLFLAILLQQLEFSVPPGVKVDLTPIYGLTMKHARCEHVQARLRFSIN
Procedure: as §1, §2, §3

CYP2C9 [3] = conditions: competitive inhibitor; cited from earlier work
CYP3A4 [4] = conditions: cited from earlier work
CYP1A2 [5] = conditions: cited from earlier work
CYP2C9 [6] = target: T3, CYP2C9 (Homo sapiens, UniProt P11712); test: Kinetic analysis of diclofenac 4′-hydroxylation in Ad-P450 cells; format: in vitro ADME
T3 construct: expressed in transfected cells; host or cells: HepG2 cells infected with Ad-CYP2C9 (1 MOI) together with the four other P450 adenoviruses
Procedure: The column oven temperature was maintained at 40 °C.

CYP3A4 [7] = target: T4, CYP3A4 (Homo sapiens, UniProt P08684); test: Kinetic analysis of midazolam 1′-hydroxylation in Ad-P450 cells; format: in vitro ADME
T4 construct: expressed in transfected cells; host or cells: HepG2 cells infected with Ad-CYP3A4 (10 MOI) together with the four other P450 adenoviruses
Procedure: as §1, §2, §3

CYP2C19 [8] = target: T5, CYP2C19 (Homo sapiens, UniProt P33261); test: Kinetic analysis of omeprazole 5-hydroxylation in Ad-P450 cells; format: in vitro ADME
T5 construct: expressed in transfected cells; host or cells: HepG2 cells infected with Ad-CYP2C19 (2 MOI) together with the four other P450 adenoviruses
Procedure: as §1, §2, §3

CYP3A4 [9] = target: T4, CYP3A4; test: CYP3A4 inhibition (midazolam 1′-hydroxylation) in Ad-P450 cells, substrate cocktail; format: in vitro ADME; conditions: probe midazolam (1′-hydroxylation), read-out: Residual activity CYP3A4
CYP2D6 [10] = target: T1, CYP2D6; test: CYP2D6 inhibition (dextromethorphan O-demethylation) in Ad-P450 cells, substrate cocktail; format: in vitro ADME; conditions: read-out: Residual activity CYP2D6
CYP1A2 [11] = target: T2, CYP1A2; test: CYP1A2 inhibition (phenacetin O-deethylation) in Ad-P450 cells, substrate cocktail; format: in vitro ADME; parameters: expressed in transfected cells; host or cells: HepG2 cells infected with Ad-CYP1A2 (5 MOI) together with the four other P450 adenoviruses; conditions: probe phenacetin (O-deethylation), read-out: Residual activity CYP1A2
CYP2C19 [12] = target: T5, CYP2C19; test: CYP2C19 inhibition (omeprazole 5-hydroxylation) in Ad-P450 cells, substrate cocktail; format: in vitro ADME; conditions: probe omeprazole (5-hydroxylation), read-out: Residual activity CYP2C19

T5 sequence (P33261 whole entry): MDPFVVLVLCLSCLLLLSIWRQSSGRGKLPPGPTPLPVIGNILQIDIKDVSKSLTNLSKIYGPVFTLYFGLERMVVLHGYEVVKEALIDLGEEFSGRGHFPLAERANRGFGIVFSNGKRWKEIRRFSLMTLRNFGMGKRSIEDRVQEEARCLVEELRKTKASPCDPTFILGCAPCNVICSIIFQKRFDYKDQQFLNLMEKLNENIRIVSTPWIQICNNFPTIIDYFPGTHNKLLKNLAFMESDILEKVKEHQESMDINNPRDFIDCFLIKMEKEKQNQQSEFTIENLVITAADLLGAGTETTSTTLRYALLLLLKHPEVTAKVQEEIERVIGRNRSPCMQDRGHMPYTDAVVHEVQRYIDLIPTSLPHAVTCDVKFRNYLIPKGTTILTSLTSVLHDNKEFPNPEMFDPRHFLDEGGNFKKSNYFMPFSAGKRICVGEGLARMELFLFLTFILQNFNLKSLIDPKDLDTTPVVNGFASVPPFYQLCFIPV
T1 sequence (P10635 whole entry): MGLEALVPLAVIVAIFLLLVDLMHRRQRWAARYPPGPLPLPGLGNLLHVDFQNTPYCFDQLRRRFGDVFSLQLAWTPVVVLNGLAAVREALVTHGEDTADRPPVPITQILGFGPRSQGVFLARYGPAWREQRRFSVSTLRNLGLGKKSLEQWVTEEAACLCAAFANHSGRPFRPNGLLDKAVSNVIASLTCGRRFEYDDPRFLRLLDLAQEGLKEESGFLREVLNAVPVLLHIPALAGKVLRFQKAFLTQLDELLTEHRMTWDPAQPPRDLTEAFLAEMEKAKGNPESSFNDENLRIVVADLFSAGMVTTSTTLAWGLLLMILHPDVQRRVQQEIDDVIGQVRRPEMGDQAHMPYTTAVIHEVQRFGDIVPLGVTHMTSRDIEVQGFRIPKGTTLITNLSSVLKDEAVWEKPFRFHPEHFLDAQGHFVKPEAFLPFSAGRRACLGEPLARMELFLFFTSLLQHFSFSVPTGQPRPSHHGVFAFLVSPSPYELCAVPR
T4 sequence (P08684 whole entry): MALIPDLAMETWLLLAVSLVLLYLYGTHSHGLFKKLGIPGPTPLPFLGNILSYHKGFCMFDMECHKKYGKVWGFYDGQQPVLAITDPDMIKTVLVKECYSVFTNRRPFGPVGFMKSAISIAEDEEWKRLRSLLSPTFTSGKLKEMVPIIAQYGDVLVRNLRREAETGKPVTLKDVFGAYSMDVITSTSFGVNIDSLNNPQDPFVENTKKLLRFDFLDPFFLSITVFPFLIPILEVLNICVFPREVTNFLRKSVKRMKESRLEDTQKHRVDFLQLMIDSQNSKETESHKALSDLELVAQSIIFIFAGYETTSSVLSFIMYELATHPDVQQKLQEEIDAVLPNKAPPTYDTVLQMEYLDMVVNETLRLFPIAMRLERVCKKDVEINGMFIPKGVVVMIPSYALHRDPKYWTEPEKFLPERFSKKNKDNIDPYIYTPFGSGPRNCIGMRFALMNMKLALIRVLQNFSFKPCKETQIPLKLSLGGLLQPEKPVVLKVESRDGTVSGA
T3 sequence (P11712 whole entry): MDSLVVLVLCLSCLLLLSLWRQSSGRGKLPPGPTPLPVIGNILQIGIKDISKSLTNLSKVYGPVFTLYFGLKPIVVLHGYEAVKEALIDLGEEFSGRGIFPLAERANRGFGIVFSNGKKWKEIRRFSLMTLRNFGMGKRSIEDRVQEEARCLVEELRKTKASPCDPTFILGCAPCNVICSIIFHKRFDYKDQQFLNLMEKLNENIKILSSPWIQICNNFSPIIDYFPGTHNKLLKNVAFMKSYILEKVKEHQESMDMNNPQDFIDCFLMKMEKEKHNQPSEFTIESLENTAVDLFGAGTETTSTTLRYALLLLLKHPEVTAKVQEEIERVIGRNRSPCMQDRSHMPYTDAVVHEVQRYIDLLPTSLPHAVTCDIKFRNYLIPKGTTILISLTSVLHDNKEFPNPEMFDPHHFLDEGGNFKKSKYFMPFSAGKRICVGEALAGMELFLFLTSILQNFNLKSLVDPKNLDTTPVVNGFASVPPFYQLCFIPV

SMILES: COc1ccc2c(c1)[C@]13CCCC[C@@H]1[C@H](C2)N(C)CC3 [Dextromethorphan]
- Vmax (CYP2D6 [1]; Dextromethorphan O-demethylation, Ad-P450 cells, 5 h): 1.10 pmol/well/hr
- Km at 5 h (CYP2D6 [1]; human): 17.1 µM

SMILES: CCOc1ccc(NC(C)=O)cc1 [Phenacetin]
- Vmax (CYP1A2 [2]): 100.30 pmol/well/hr

SMILES: c1cc2c(cc1[C@H]1OC[C@H]3[C@@H]1CO[C@@H]3c1ccc3c(c1)OCO3)OCO2 [Sesamin]
- Ki (CYP2C9 [3]): 24 µM
- Ki (CYP3A4 [4]): 4.2 µM
- Ki (CYP1A2 [5]): 75 µM

SMILES: O=C(O)Cc1ccccc1Nc1c(Cl)cccc1Cl [Diclofenac]
- Vmax (CYP2C9 [6]; 5 h): 239.9 pmol/well/hr
- Km at 5 h (CYP2C9 [6]; human): 5.87 µM

SMILES: Cc1ncc2n1-c1ccc(Cl)cc1C(c1ccccc1F)=NC2 [Midazolam]
- Vmax (CYP3A4 [7]; Midazolam 1′-hydroxylation, Ad-P450 cells, 5 h): 12.30 pmol/well/hr
- Km at 5 h (CYP3A4 [7]; human): 1 µM

SMILES: COc1ccc2[nH]c([S+]([O-])Cc3ncc(C)c(OC)c3C)nc2c1 (stereo not shown) [Omeprazole]
- Vmax (CYP2C19 [8]; 5 h): 4.66 pmol/well/hr
- Km at 5 h (CYP2C19 [8]; human): 2.75 µM

SMILES: COc1cc(/C=C/C(=O)CC(=O)/C=C/c2ccc(O)c(OC)c2)ccc1O [curcumin]
- activity at 5 h, 50 μM (CYP3A4 [9]): 61.9%
- activity at 5 h, 50 μM (CYP2D6 [10]): 71.9%
- activity at 5 h, 50 μM (CYP1A2 [11]): 58.3%
- activity at 5 h, 50 μM (CYP2C19 [12]): 72.7%
